# From ChEMBL document CHEMBL3991601, “The target landscape of clinical kinase drugs” (Science, 2017)
# Calls of active or inactive are those of the source. For most assays here, no stated cut-off is given here; in the data, actives have a measured Kd and inactives only a lower limit.
# How the values were obtained:
# [1] = target: Tyrosine-protein kinase HCK (Homo sapiens, UniProt P08631)
# [2] = target: T1, Mitogen-activated protein kinase kinase kinase kinase 3 (Homo sapiens, UniProt Q8IVH8)
# T1 sequence (Q8IVH8 whole entry): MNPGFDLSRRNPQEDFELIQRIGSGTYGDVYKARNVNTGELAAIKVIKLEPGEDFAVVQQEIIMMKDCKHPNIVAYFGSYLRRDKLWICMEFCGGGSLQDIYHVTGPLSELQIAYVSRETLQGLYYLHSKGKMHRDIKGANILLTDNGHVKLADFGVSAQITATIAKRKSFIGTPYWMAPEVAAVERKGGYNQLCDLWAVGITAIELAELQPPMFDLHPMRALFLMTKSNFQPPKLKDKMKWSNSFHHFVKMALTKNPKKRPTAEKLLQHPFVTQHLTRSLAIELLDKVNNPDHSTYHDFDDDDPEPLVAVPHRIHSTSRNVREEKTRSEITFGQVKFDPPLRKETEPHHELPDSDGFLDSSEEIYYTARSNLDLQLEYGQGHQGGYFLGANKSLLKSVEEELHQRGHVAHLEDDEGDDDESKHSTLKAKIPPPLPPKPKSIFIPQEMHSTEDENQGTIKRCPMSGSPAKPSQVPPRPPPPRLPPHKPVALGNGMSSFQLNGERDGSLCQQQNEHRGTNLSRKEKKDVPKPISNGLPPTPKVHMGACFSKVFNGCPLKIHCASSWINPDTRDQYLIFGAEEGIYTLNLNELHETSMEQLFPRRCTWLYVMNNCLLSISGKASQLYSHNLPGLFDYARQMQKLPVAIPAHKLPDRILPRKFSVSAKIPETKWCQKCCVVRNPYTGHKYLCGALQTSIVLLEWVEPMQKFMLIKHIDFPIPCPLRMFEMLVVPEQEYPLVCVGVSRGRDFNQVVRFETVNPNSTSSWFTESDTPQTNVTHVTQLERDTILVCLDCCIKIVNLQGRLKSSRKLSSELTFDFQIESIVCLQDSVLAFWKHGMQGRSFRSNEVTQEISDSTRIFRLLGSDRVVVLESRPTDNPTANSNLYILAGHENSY
# [3] = target: T2, Adenine phosphoribosyltransferase (Homo sapiens, UniProt P07741)
# T2 sequence (P07741 whole entry): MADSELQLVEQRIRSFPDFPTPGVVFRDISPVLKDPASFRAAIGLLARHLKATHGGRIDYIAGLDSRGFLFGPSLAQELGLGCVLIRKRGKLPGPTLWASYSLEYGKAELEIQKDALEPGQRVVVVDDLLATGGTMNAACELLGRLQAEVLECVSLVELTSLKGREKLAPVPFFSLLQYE
# [4] = target: Activin receptor type-2B (Homo sapiens, UniProt Q13705)
# [5] = target: Rho-associated protein kinase 1 (Homo sapiens, UniProt Q13464)
# [6] = target: LIM domain kinase 1 (Homo sapiens, UniProt P53667)
# [7] = target: T3, Succinate--CoA ligase [ADP-forming] subunit beta, mitochondrial (Homo sapiens, UniProt Q9P2R7)
# T3 sequence (Q9P2R7 whole entry): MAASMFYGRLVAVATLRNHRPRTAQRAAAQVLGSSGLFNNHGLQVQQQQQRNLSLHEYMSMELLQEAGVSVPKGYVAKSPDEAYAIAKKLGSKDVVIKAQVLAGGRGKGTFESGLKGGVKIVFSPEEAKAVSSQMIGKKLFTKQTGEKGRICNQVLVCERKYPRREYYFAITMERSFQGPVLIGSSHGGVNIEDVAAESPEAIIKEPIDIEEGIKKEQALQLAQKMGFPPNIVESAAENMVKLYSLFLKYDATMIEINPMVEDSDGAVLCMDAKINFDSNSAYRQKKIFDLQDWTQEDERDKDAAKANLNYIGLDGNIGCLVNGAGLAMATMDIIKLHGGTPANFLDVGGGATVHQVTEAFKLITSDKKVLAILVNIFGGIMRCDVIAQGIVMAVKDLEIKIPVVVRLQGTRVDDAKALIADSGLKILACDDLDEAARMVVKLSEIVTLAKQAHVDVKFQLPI
# [8] = target: Protein-tyrosine kinase 6 (Homo sapiens, UniProt Q13882)
# Sequence of Protein-tyrosine kinase 6 (Q13882 whole entry, the tested form may be a part): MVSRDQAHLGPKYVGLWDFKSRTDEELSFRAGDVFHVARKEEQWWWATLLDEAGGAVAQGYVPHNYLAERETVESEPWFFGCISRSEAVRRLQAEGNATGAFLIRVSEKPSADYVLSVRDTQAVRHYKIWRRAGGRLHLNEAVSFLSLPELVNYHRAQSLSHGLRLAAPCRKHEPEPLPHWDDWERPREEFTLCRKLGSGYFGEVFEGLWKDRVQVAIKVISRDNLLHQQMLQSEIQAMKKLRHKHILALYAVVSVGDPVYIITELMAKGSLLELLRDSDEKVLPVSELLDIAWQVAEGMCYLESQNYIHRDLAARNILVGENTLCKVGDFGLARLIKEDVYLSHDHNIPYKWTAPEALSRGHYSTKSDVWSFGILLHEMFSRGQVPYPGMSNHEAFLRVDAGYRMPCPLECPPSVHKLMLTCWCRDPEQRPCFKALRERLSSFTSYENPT
# [9] = target: PAS domain-containing serine/threonine-protein kinase (Homo sapiens, UniProt Q96RG2)
# Sequence of PAS domain-containing serine/threonine-protein kinase (Q96RG2 whole entry, the tested form may be a part): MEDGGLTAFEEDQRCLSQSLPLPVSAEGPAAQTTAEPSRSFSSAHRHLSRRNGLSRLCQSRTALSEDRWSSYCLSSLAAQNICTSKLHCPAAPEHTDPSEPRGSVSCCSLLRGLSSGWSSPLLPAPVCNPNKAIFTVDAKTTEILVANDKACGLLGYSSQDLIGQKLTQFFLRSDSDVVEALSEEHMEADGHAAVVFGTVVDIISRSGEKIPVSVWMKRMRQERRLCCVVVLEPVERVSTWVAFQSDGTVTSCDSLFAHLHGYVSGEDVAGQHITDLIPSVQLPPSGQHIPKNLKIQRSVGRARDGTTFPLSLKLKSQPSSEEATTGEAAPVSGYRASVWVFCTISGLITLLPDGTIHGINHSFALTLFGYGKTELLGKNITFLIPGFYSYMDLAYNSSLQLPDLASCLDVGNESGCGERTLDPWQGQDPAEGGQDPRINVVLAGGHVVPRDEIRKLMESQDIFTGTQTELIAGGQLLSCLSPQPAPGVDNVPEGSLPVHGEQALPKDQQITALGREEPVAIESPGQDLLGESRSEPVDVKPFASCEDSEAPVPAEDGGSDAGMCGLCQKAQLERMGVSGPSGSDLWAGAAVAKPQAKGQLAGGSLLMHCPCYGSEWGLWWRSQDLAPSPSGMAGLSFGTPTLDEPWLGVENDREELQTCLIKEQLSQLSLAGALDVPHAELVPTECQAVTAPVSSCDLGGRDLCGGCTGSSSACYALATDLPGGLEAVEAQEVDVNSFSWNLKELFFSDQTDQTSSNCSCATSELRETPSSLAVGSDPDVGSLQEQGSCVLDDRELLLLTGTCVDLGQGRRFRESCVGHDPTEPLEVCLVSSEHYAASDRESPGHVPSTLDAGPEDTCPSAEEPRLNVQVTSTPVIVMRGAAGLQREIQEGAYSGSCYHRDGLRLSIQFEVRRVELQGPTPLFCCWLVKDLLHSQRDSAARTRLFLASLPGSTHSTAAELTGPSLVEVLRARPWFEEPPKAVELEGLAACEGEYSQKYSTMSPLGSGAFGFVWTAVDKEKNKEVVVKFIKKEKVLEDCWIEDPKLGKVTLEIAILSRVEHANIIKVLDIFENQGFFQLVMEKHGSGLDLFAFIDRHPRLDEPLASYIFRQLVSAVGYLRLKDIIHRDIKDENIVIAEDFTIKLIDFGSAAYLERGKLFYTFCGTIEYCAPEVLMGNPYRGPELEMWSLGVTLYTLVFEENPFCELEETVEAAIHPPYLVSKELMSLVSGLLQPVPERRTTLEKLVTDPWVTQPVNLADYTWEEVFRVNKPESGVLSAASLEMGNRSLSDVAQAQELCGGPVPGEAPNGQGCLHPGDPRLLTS
# [10] = target: GTP-binding protein 4 (Homo sapiens, UniProt Q9BZE4)
# [11] = target: Mitogen-activated protein kinase 11 (Homo sapiens, UniProt Q15759)
# Sequence of Mitogen-activated protein kinase 11 (Q15759 whole entry): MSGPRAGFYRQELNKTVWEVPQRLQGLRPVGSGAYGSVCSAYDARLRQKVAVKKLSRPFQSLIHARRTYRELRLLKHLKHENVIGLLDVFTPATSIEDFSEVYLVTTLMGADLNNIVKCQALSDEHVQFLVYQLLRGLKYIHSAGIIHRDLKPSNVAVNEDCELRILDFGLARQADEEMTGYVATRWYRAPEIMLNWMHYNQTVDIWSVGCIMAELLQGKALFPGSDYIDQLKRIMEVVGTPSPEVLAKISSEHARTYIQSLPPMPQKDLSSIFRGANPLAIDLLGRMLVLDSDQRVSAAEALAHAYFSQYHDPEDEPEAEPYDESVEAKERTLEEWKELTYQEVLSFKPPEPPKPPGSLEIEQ
# [12] = target: Mitogen-activated protein kinase 7 (Homo sapiens, UniProt Q13164)
# [13] = target: T4, Phosphatidylinositol 5-phosphate 4-kinase type-2 alpha (Homo sapiens, UniProt P48426)
# T4 sequence (P48426 whole entry): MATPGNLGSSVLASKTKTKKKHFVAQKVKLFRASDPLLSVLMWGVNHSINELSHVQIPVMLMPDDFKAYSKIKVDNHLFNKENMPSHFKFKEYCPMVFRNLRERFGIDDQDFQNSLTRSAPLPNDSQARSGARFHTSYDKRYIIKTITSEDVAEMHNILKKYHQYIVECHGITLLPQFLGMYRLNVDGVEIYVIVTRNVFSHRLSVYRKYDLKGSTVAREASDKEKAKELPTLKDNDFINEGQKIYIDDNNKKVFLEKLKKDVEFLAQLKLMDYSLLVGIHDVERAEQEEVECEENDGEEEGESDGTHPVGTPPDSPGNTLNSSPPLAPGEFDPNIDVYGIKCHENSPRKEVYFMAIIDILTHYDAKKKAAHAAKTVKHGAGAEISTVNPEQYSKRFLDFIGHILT
# [14] = target: LIM domain kinase 2 (Homo sapiens, UniProt P53671)
# Sequence of LIM domain kinase 2 (P53671 whole entry, the tested form may be a part): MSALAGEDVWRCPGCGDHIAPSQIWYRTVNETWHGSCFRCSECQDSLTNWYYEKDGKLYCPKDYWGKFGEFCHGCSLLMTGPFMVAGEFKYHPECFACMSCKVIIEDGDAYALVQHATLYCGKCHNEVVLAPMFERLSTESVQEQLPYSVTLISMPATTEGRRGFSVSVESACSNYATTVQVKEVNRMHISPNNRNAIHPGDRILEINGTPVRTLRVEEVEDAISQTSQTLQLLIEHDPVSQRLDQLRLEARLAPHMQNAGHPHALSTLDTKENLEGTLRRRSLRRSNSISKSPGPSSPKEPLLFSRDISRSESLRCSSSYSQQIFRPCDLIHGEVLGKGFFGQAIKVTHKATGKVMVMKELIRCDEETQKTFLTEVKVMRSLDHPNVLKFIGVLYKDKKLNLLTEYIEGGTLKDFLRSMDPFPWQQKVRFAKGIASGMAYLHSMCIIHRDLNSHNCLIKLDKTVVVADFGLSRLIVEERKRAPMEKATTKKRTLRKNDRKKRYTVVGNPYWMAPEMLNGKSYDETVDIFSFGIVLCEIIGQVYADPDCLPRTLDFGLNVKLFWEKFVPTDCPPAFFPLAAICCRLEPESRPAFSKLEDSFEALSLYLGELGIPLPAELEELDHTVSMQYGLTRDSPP
# [15] = target: Aurora kinase B (Homo sapiens, UniProt Q96GD4)
# Sequence of Aurora kinase B (Q96GD4 whole entry): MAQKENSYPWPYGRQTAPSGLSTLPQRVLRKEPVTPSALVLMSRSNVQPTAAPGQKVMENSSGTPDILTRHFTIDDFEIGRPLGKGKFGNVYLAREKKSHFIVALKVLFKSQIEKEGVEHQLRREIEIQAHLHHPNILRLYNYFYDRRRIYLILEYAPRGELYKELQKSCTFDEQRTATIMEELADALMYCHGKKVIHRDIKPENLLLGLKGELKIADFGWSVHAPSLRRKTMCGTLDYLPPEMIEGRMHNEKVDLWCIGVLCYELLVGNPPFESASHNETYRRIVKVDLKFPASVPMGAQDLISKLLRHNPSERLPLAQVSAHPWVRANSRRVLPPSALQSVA
# [16] = target: 5'-AMP-activated protein kinase catalytic subunit alpha-1 (Homo sapiens, UniProt Q13131)
# Sequence of 5'-AMP-activated protein kinase catalytic subunit alpha-1 (Q13131 whole entry): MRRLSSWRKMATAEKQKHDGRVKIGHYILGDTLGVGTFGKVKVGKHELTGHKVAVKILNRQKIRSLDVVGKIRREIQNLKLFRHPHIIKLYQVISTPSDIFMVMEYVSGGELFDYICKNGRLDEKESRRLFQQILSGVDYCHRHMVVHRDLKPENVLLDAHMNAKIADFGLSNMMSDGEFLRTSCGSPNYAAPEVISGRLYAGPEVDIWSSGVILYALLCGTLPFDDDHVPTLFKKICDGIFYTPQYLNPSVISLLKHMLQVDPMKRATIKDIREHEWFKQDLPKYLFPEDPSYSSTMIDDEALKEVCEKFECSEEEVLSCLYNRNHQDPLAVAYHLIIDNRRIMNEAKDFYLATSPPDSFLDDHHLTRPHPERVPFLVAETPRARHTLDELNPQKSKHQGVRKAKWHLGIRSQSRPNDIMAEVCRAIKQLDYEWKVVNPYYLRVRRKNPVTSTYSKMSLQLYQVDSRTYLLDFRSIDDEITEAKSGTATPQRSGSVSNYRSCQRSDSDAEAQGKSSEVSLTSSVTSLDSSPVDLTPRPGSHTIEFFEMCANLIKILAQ
# [17] = target: Mitogen-activated protein kinase 8 (Homo sapiens, UniProt P45983)
# Sequence of Mitogen-activated protein kinase 8 (P45983 whole entry): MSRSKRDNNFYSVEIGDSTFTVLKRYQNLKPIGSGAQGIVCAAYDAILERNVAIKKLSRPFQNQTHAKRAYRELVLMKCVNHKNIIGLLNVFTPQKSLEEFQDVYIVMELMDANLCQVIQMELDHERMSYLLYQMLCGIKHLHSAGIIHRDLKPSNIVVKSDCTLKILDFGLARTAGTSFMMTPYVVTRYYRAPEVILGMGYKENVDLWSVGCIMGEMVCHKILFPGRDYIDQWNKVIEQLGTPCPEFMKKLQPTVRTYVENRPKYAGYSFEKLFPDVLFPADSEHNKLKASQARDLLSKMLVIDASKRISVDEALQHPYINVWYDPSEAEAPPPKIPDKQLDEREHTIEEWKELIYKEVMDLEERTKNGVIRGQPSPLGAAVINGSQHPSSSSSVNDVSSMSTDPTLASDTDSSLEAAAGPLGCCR
# Sequence of Tyrosine-protein kinase HCK (P08631 whole entry): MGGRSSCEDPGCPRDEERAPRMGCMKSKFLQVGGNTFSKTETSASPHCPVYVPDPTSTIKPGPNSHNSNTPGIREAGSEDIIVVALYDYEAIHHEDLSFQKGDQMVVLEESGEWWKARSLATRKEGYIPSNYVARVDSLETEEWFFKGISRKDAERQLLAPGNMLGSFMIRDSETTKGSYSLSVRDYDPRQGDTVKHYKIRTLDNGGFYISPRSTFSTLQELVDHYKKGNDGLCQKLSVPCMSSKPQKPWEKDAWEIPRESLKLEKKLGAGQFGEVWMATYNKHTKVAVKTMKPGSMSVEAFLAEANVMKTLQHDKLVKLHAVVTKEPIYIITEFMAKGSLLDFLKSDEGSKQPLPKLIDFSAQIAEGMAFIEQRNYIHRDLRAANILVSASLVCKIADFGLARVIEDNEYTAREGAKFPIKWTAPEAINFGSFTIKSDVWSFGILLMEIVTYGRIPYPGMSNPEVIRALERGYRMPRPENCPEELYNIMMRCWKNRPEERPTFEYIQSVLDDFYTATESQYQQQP
Kd [1],Kd [2],Kd [3],Kd [4],Kd [5],Kd [6],Kd [7],Kd [8],Kd [9],Kd [10],Kd [11],Kd [12],Kd [13],Kd [14],Kd [15],Kd [16],Kd [17],SMILES
> 30 µM (inactive),> 30 µM (inactive),> 30 µM (inactive),> 30 µM (inactive),> 30 µM (inactive),> 30 µM (inactive),> 30 µM (inactive),> 30 µM (inactive),> 30 µM (inactive),> 30 µM (inactive),> 30 µM (inactive),> 30 µM (inactive),> 30 µM (inactive),> 30 µM (inactive),> 30 µM (inactive),> 30 µM (inactive),> 30 µM (inactive),COCc1c(-c2ccc(NC(=O)Nc3cc(C(F)(F)F)ccc3F)c(F)c2)c2c(N)ncnn2c1CN1CCOCC1
0.664 µM (active),> 30 µM (inactive),> 30 µM (inactive),> 30 µM (inactive),> 30 µM (inactive),,> 30 µM (inactive),0.188 µM (active),> 30 µM (inactive),> 30 µM (inactive),> 30 µM (inactive),> 30 µM (inactive),,4.43 µM (active),0.017 µM (active),0.05 µM (active),0.157 µM (active),O=C(Nc1c[nH]nc1-c1nc2cc(CN3CCOCC3)ccc2[nH]1)NC1CC1 [AT-9283]
> 30 µM (inactive),> 30 µM (inactive),> 30 µM (inactive),> 30 µM (inactive),> 30 µM (inactive),> 30 µM (inactive),,> 30 µM (inactive),> 30 µM (inactive),> 30 µM (inactive),,> 30 µM (inactive),> 30 µM (inactive),> 30 µM (inactive),> 30 µM (inactive),> 30 µM (inactive),> 30 µM (inactive),Cc1cc(C(=O)NOCCO)c(Nc2ccc(I)cc2F)n(C)c1=O [AZD-8330]
> 30 µM (inactive),> 30 µM (inactive),> 30 µM (inactive),> 30 µM (inactive),> 30 µM (inactive),> 30 µM (inactive),,> 30 µM (inactive),> 30 µM (inactive),> 30 µM (inactive),> 30 µM (inactive),> 30 µM (inactive),,> 30 µM (inactive),> 30 µM (inactive),> 30 µM (inactive),> 30 µM (inactive),Cc1cnc(NC(=O)Nc2cc(Br)c(C)cc2OC[C@@H]2CNCCO2)cn1 [RABUSERTIB]
0.143 µM (active),9.28 µM,> 30 µM (inactive),> 30 µM (inactive),> 30 µM (inactive),> 30 µM (inactive),> 30 µM (inactive),0.18 µM (active),> 30 µM (inactive),,> 30 µM (inactive),> 30 µM (inactive),> 30 µM (inactive),> 30 µM (inactive),0.044 µM (active),,> 30 µM (inactive),CCS(=O)(=O)c1cccc(-c2cc(C(=O)NC3CCN(C)CC3)c(C)c3[nH]c4ncc(C)cc4c23)c1 [TAK-901]
> 30 µM (inactive),> 30 µM (inactive),> 30 µM (inactive),> 30 µM (inactive),> 30 µM (inactive),> 30 µM (inactive),> 30 µM (inactive),> 30 µM (inactive),> 30 µM (inactive),> 30 µM (inactive),> 30 µM (inactive),> 30 µM (inactive),,> 30 µM (inactive),> 30 µM (inactive),> 30 µM (inactive),> 30 µM (inactive),O=C1NC(=O)[C@@H](c2cn3c4c(cccc24)CCC3)[C@@H]1c1c[nH]c2ccccc12 [TIVANTINIB]

# Continued, molecule first:
SMILES,Kd [1],Kd [2],Kd [3],Kd [4],Kd [5],Kd [6],Kd [7],Kd [8],Kd [9],Kd [10],Kd [11],Kd [12],Kd [13],Kd [14],Kd [15],Kd [16],Kd [17]
CC(=O)c1cnc2ccc(-c3cc(Cl)c(O)c(Cl)c3)nc2c1N[C@H]1CC[C@H](CN(C)C)CC1,0.116 µM (active),> 30 µM (inactive),> 30 µM (inactive),> 30 µM (inactive),> 30 µM (inactive),> 30 µM (inactive),> 30 µM (inactive),> 30 µM (inactive),> 30 µM (inactive),> 30 µM (inactive),> 30 µM (inactive),> 30 µM (inactive),> 30 µM (inactive),> 30 µM (inactive),0.126 µM (active),,
C#Cc1cccc(Nc2ncnc3cc(OC)c(OCCCCCCC(=O)NO)cc23)c1 [CUDC-101],> 30 µM (inactive),> 30 µM (inactive),> 30 µM (inactive),> 30 µM (inactive),> 30 µM (inactive),> 30 µM (inactive),,> 30 µM (inactive),> 30 µM (inactive),> 30 µM (inactive),> 30 µM (inactive),> 30 µM (inactive),> 30 µM (inactive),> 30 µM (inactive),> 30 µM (inactive),> 30 µM (inactive),> 30 µM (inactive)
COc1ccc(S(=O)(=O)N(C(C)=O)c2ccccc2/C=C/c2cc[n+]([O-])cc2)cc1 [HMN-214],> 30 µM (inactive),> 30 µM (inactive),> 30 µM (inactive),> 30 µM (inactive),> 30 µM (inactive),> 30 µM (inactive),,> 30 µM (inactive),> 30 µM (inactive),> 30 µM (inactive),> 30 µM (inactive),> 30 µM (inactive),> 30 µM (inactive),> 30 µM (inactive),> 30 µM (inactive),> 30 µM (inactive),> 30 µM (inactive)
CCCCCCCCCCCCCCCCCCOP(=O)([O-])OC1CC[N+](C)(C)CC1 [PERIFOSINE],> 30 µM (inactive),> 30 µM (inactive),> 30 µM (inactive),> 30 µM (inactive),> 30 µM (inactive),> 30 µM (inactive),> 30 µM (inactive),> 30 µM (inactive),> 30 µM (inactive),> 30 µM (inactive),> 30 µM (inactive),> 30 µM (inactive),,> 30 µM (inactive),> 30 µM (inactive),> 30 µM (inactive),> 30 µM (inactive)
